Laboratory results: patent US20260248833A1, “PYRIMIDINE NUCLEOSIDE TREATMENTS” (The Children`s Medical Center Corporation, priority 2022, published 2026)

Tests used:
Format in all cases: biochemical
[1] = biological target: T1, immunopurified T-free telomerase (Homo sapiens, UniProt O14746); assay: Direct telomerase assay on immunopurified T-free telomerase
T1 construct: made in house; host or cells: TERC-null 293T cells, transient transfection; anti-HA magnetic bead immunopurification, enzyme used on beads
Protocol: Telomerase immunopurification: 293T TERC-null cells were transfected as described above with 3×HA-TERT and TERC/EGFP in 10-cm diameter dishes with reagents scaled up proportional to cell growth area. Two days after transfection, cells were harvested, washed once in PBS, and lysed in TRAPezeTM1×CHAPS Lysis Buffer (Roche) supplemented with RNasin Plus (Promega) and HALT protease inhibitor cocktail (Thermo Fisher), followed by incubation on ice for 30 minutes and precipitation of insoluble material by centrifugation. Immunoprecipitation was performed as described previously with minor modifications. Briefly, 75 μl of anti-HA magnetic beads (Sigma-Aldrich, SAE0197, mouse IgG1 monoclonal antibody, Clone HA-7, 50% beads by volume) were added to clarified lysates followed by 2 hours incubation at 4° C. while rotating. […] Images were quantified using ImageJ as follows. For total telomerase activity measurement (FIG. 25f), telomerase product signal in a lane was quantified and normalized to the loading control band signal within the same lane. […] For the analysis of telomerase repeat intensity (FIG. 25x), the signal of each repeat (defined as the three consecutive intense bands in the laddering pattern, as indicated in FIG. 25d), was quantified and first normalized to the loading control band signal for that lane. […]

T-free telomerase = biological target: T2, T-free telomerase (Homo sapiens, UniProt O14746); assay: Modified GGAAAG TRAP assay on T-free super-telomerase extracts; settings: increasing dTTP levels
T2 construct: expressed in transfected cells; host or cells: TERC-null 293T cells transfected with TERT and T-free TERC vectors
Protocol: (§1) TRAP assay: cell extracts for TRAP assays were made using TRAPeze™1×CHAPS Lysis Buffer (Roche) supplemented with RNASEin (Promega). Standard TRAP reactions (in FIG. 25a) were performed as described, with cell input normalized across samples using the Bio-Rad DC assay. TRAP assays were modified to enable unique dNTP concentrations in telomerase reactions from PCR reactions (FIG. 25) as follows: reactions were assembled with 1×TRAP buffer (20 mM Tris-HCl, pH 8.3; 1.5 mM MgCl2; 63 mM KCl; 0.05% Tween 20; 1 mM EGTA), TS, ACX, TNST, and NT primers as described (see Primers/Oligos below), dNTPs were added at physiologic concentrations (dATP 24 μM, dGTP 5.2 μM, dCTP 29 μM, dTTP 37 μM) unless otherwise mentioned in the figure legend, followed by telomerase extracts. TRAP assays were modified to detect GGAAAG repeats using the following primers: TS GGAAAG, TNST GGAAAG, ACX GGAAAG, and NT (see Primers/Oligos below). After addition of telomerase extracts, reactions were incubated for 30 minutes at 30° C. followed by heat inactivation at 95° C. for 5 minutes. […] Images were quantified for a given lane using ImageJ by measuring the signal of the telomerase repeat sized products divided by the signal of the internal control band for the lane, normalized to the same ratio for the untreated sample(s) in a given experiment. […]

telomerase = biological target: T3, telomerase (Homo sapiens, UniProt O14746); assay: Modified TRAP assay with exogenous dTTP on super-telomerase extracts; settings: increasing levels of exogenous dTTP
T3 construct: expressed in transfected cells; host or cells: TERC-null 293T cells transfected with TERT and TERC expression vectors
Protocol: as §1

T1 sequence (O14746 whole entry): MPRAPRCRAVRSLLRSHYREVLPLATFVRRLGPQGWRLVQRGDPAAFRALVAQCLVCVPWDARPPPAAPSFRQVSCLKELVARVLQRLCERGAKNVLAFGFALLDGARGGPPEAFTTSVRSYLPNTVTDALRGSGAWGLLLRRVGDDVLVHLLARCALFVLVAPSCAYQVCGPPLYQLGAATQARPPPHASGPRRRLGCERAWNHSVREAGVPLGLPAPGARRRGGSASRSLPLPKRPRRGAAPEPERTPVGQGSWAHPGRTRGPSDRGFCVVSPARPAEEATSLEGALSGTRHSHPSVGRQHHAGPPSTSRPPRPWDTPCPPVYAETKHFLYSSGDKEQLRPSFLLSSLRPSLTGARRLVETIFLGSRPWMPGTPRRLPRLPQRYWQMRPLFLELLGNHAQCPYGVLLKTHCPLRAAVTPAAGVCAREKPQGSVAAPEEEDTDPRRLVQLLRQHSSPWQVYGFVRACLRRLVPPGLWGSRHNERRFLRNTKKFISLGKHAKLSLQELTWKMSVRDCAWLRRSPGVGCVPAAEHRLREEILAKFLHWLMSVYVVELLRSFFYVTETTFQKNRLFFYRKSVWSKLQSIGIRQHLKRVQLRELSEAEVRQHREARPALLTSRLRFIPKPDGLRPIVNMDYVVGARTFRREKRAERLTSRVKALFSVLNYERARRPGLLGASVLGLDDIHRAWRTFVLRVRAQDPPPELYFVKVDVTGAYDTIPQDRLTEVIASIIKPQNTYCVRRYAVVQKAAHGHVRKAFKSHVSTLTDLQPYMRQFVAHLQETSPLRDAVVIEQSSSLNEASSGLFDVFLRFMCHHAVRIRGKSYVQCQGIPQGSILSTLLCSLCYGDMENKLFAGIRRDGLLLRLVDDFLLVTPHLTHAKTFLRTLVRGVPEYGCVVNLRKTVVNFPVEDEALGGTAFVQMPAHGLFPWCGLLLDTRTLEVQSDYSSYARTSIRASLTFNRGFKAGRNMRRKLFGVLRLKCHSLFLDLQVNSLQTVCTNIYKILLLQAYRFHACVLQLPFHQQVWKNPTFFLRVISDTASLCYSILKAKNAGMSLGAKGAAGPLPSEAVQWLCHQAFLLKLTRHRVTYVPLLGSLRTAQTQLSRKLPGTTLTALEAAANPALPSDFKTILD
T1 sequence (O60832 whole entry partner): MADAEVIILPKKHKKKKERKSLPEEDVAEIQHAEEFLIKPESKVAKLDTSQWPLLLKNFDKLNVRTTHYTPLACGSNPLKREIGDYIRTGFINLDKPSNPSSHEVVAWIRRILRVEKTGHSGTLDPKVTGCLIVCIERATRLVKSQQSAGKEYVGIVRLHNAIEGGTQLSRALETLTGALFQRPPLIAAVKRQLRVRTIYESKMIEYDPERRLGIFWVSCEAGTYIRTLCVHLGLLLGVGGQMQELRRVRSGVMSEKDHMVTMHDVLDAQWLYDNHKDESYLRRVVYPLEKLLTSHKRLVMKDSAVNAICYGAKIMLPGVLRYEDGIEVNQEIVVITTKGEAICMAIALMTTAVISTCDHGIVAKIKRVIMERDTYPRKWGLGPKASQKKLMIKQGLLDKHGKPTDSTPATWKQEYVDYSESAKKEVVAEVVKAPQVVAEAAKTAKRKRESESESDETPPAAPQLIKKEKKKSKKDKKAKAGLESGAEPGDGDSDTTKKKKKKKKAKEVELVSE
T1 sequence (Q9NPE3 whole entry partner): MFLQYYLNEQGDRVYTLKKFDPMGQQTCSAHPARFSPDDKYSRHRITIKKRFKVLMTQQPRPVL
T1 sequence (Q9NX24 whole entry partner): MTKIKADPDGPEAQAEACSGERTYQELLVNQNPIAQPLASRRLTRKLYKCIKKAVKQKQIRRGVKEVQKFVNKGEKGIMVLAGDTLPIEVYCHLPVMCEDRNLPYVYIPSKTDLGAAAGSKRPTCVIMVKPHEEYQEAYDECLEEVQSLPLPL
T1 sequence (Q9NY12 whole entry partner): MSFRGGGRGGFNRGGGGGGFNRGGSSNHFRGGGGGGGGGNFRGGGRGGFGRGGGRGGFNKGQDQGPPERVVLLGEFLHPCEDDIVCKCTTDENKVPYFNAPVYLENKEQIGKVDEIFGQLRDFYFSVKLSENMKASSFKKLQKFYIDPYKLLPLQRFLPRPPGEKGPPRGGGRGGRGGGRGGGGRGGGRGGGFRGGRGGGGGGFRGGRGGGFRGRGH
T3 sequence (O14746 whole entry): as the sequence (O14746 whole entry) above
T3 sequence (O60832 whole entry partner): as the sequence (O60832 whole entry partner) above
T3 sequence (Q9NPE3 whole entry partner): as the sequence (Q9NPE3 whole entry partner) above
T3 sequence (Q9NX24 whole entry partner): as the sequence (Q9NX24 whole entry partner) above
T3 sequence (Q9NY12 whole entry partner): as the sequence (Q9NY12 whole entry partner) above
T2 sequence (O14746 whole entry): as the sequence (O14746 whole entry) above
T2 sequence (O60832 whole entry partner): as the sequence (O60832 whole entry partner) above
T2 sequence (Q9NPE3 whole entry partner): as the sequence (Q9NPE3 whole entry partner) above
T2 sequence (Q9NX24 whole entry partner): as the sequence (Q9NX24 whole entry partner) above
T2 sequence (Q9NY12 whole entry partner): as the sequence (Q9NY12 whole entry partner) above

T-free telomerase activity, levels higher than without dTTP ([1]; at a concentration of 25 μM dTTP): approximately 50%
telomerase activity (telomerase): enhanced telomerase activity
Structure (SMILES): Cc1cn([C@H]2C[C@H](O)[C@@H](COP(=O)(O)OP(=O)(O)OP(=O)(O)O)O2)c(=O)[nH]c1=O [dTTP, dT triphosphate]
T-free telomerase activity ([1]; incorporation of α-32P-dATP, dTTP added): enhanced T-free telomerase activity in a dose-dependent manner
T-free telomerase activity (T-free telomerase): increased T-free telomerase activity with increasing dTTP levels
